# Experiments:
# [1] = system: Hepatocyte; experiment: Hepatoprotective activity against D-GaIN induced liver injury in rat hepatocyte assessed as decrease in LDH level at 30 to 120 uM; assay type: functional; details: dose 30-120 µM
# [2] = Hepatotoxicity in D-GaIN induced in Wistar rat model hepatocyte assessed as reduction in PLA2 level; assay type: toxicity, cell-based
# [3] = system: Hepatocyte; experiment: Hepatoprotective activity against D-GaIN induced liver injury in rat hepatocyte assessed as decrease in ALT level at 30 to 120 uM; assay type: functional; details: dose 30-120 µM
# [4] = system: Hepatocyte; experiment: Hepatoprotective activity against D-GaIN/TNFalpha induced cell death in mouse hepatocytes assessed as reduction in TNF alpha level; assay type: functional, cell-based
# [5] = Hepatoprotective activity against D-Galactosamine-induced toxicity in rat WB-F344 cell assessed as cell damage at 10 uM by MTT colorimetric assay relative to control; assay type: functional
# [6] = Hepatotoxicity in D-GaIN induced Wistar rat assessed as change in induction of TAT level for 10 days relative to control; assay type: toxicity; set-up: concentration or dose not given beside the values; details: in vivo, 240 h, time 10 day
# [7] = system: Hepatocyte; experiment: Hepatoprotective activity against D-GaIN/TNFalpha -induced cell death in mouse hepatocyte assessed as inhibition of cell death; assay type: functional, cell-based; set-up: Activity: concentration or dose not given beside the values
# [8] = system: Hepatocyte; experiment: Hepatoprotective activity against D-GaIN-induced toxicity in mouse hepatocyte relative to control; assay type: functional, cell-based
# [9] = Hepatotoxicity in rat hepatocyte assessed as change in GSH level at 30 microg/mL relative to control; assay type: toxicity, cell-based; details: hepatocytes, at 30 µg/mL
# [10] = system: Hepatocyte; experiment: Hepatoprotective activity against D-GaIN/TNFalpha-induced cell death in mouse hepatocyte at 100 uM; assay type: functional, cell-based
smiles,measurement,setting,value
C[C@]1(C(=O)O)CC[C@]2(C)CC[C@]3(C)C(=CC(=O)[C@@H]4[C@@]5(C)CC[C@H](O[C@@H]6O[C@H](C(=O)O)[C@@H](O)[C@H](O)[C@H]6O[C@@H]6O[C@H](C(=O)O)[C@@H](O)[C@H](O)[C@H]6O)[C@](C)(CO)[C@@H]5CC[C@]43C)[C@H]2C1,Activity,[1],253.5 U/L
same,IC50,[2],3.6 µM
same,Activity,[3],17.1 U/L
C=C(C)[C@H](O)CC[C@@H](C)[C@H]1CC[C@@]2(C)[C@@H]3CC[C@H]4[C@](C)(C(=O)O)[C@@H](O)C[C@H](O)[C@@]45C[C@@]35CC[C@]12C,IC50,[4],34.3 µM
C=C(C)C(=O)CC[C@@H](C=O)[C@H]1CC[C@@]2(C)[C@@H]3CC[C@H]4[C@](C)(C(=O)OC)[C@@H](O)C[C@H](O)[C@@]45C[C@@]35CC[C@]12C,IC50,[4],89.3 µM
CC(C)=CCC[C@@H](C(=O)O)[C@H]1CC[C@@]2(C)C3=C(CC[C@]12C)[C@@]1(C)CC[C@H](O)C(C)(C)[C@@H]1CC3 [TRAMETENOLIC ACID],Activity,[5],75%
CC(=O)O[C@@H]1C[C@](C)(C(=O)O)C[C@H]2C3=CC(=O)[C@@H]4[C@@]5(C)CC[C@H](O[C@@H]6O[C@H](C(=O)O)[C@@H](O)[C@H](O)[C@H]6O[C@@H]6O[C@H](C(=O)O)[C@@H](O)[C@H](O)[C@H]6O)C(C)(C)[C@@H]5CC[C@@]4(C)[C@]3(C)CC[C@@]12C,Activity,[1],242.8 U/L
same,IC50,[2],27.1 µM
same,Activity,[3],16.5 U/L
CC1(C)CC[C@@]2(C)[C@H](C1)C1=CC[C@@H]3[C@@]4(C)CC[C@@H](O)C(C)(C)[C@@H]4CC[C@@]3(C)[C@]1(C)C[C@@H]2O,Activity,[6],5.3%
C=C(C)[C@@H](O)CC[C@@H](CO)[C@H]1CC[C@@]2(C)[C@@H]3CC[C@H]4[C@](C)(C(=O)OC)[C@@H](O)C[C@H](O)[C@@]45C[C@@]35CC[C@]12C [METHYL QUADRANGULARATE],IC50,[4],337 µM
CC(C)=CCC[C@@H](C)[C@H]1CC[C@@]2(C)C3=C(CC[C@]12C)[C@@]1(C)CC[C@H](O)C(C)(C)[C@@H]1CC3 [LANOSTEROL],Activity,[5],74.8%
C[C@@H]1C(=O)O[C@H]2[C@@H]1O[C@]13O[C@@]4(CC[C@]5(C)C(=O)[C@](C)(O)[C@@]2(O)[C@H]15)C[C@]12OC(=O)C[C@H]1OC(C)(C)[C@@H]2C[C@@H]1O[C@@]14C3=O,Activity,[7],37.6%
C[C@@H]1CC[C@]2(C(=O)O)CC[C@]3(C)C(=CC[C@@H]4[C@@]5(C)C[C@@H](O)[C@H](O)C(C)(C)[C@@H]5CC[C@]43C)[C@@H]2[C@]1(C)O [TOMENTIC ACID],IC50,[8],9.5 µM
C[C@H]1O[C@@H](O[C@H]2CC[C@@]3(C)[C@@H](CC[C@]4(C)[C@@H]3[C@H](O)C=C3[C@@H]5CC(C)(C)CC[C@]5(CO)[C@@H](O)C[C@]34C)[C@]2(C)CO)[C@H](O)[C@@H](O[C@@H]2O[C@H](CO)[C@@H](O)[C@H](O)[C@H]2O)[C@H]1O,Activity,[9],46.5%
C[C@]1(C(=O)O)CC[C@]2(C)CC[C@]3(C)C(=CC(=O)[C@@H]4[C@@]5(C)CC[C@H](O[C@@H]6O[C@H](C(=O)O)[C@@H](O)[C@H](O)[C@H]6O[C@@H]6O[C@H](C(=O)O)[C@@H](O)[C@H](O)[C@H]6O)[C@](C)(CO)[C@@H]5CC[C@]43C)[C@@H]2C1,Activity,[1],253.5 U/L
same,IC50,[2],6.9 µM
same,Activity,[3],17.1 U/L
C[C@H]1O[C@@H](O[C@H]2CC[C@@]3(C)[C@@H](CC[C@]4(C)[C@@H]3[C@H](O)C[C@@H]3C5=CC(C)(C)CC[C@]5(CO)[C@@H](O)C[C@]34C)[C@]2(C)CO)[C@H](O)[C@@H](O[C@@H]2O[C@H](CO)[C@@H](O)[C@H](O)[C@H]2O)[C@H]1O,Activity,[9],64.7%
CC1=C2C3=CC[C@@H]4[C@@]5(C)C[C@@H](O)[C@H](O)[C@@](C)(CO)[C@@H]5CC[C@@]4(C)[C@]3(C)CC[C@@]2(C(=O)O[C@@H]2O[C@H](CO)[C@@H](O)[C@H](O)[C@H]2O)CC[C@H]1C,IC50,[10],34.6 µM
CC1(C)[C@@H](O[C@@H]2O[C@H](C(=O)O)[C@@H](O)[C@H](O)[C@H]2O[C@@H]2O[C@H](C(=O)O)[C@@H](O)[C@H](O)[C@H]2O)CC[C@]2(C)[C@H]3C(=O)C=C4[C@@H]5C[C@](C)(C(=O)O)CC[C@]5(C)CC[C@@]4(C)[C@]3(C)CC[C@@H]12,Activity,[1],253.5 U/L
same,IC50,[2],16.9 µM
same,Activity,[3],17.1 U/L
CC(C)=CC[C@@H](O)[C@@H](C)[C@H]1CC[C@@]2(C)C3=C(C(=O)C[C@]12C)[C@@]1(C)CC[C@H](O)C(C)(C)[C@@H]1CC3,Activity,[5],81.2%
C[C@H]1O[C@@H](O[C@H]2CC[C@@]3(C)[C@@H](CC[C@]4(C)[C@@H]3C(=O)C=C3[C@@H]5CC(C)(C)CC[C@]5(CO)[C@@H](O)C[C@]34C)[C@]2(C)CO)[C@H](O)[C@@H](O[C@@H]2O[C@H](CO)[C@@H](O)[C@H](O)[C@H]2O)[C@H]1O,Activity,[9],90.9%
COC(=O)[C@]1(C)[C@@H](O)C[C@H](O)[C@]23C[C@]24CC[C@]2(C)[C@@H]([C@H](C=O)C/C=C/C(C)(C)O)CC[C@@]2(C)[C@@H]4CC[C@@H]13,IC50,[4],45.7 µM
C[C@H]1C(=O)O[C@@H]2[C@H]1O[C@@]13O[C@]4(CC[C@@]5(C)C(=O)[C@@](C)(O)[C@]2(O)[C@@H]15)C[C@@]12OC(=O)C[C@@H]1OC(C)(C)[C@H]2C[C@@H](O)[C@@H]4C3=O,Activity,[7],37.6%
CC(C)C(O)(CO)CC[C@@H](C)[C@H]1CC[C@@]2(C)[C@@H]3CC[C@H]4[C@H](C(=O)O)[C@@H](O)C[C@H](O)[C@@]45C[C@@]35CC[C@]12C (stereo not given in full),IC50,[4],67.6 µM
CO[C@@H]1C=C2[C@@H]3CC(C)(C)CC[C@]3(CO)[C@@H](O)C[C@@]2(C)[C@]2(C)CC[C@H]3C(C)(C)[C@@H](O[C@@H]4O[C@H](C)[C@H](O)[C@H](O[C@@H]5O[C@H](CO)[C@@H](O)[C@H](O)[C@H]5O)[C@H]4O)CC[C@]3(C)[C@@H]12,Activity,[9],75%
CC(C)=CC[C@H](O)[C@@H](C)[C@H]1CC[C@@]2(C)C3=C(CC[C@]12C)[C@@]1(C)CC[C@H](O)C(C)(C)[C@@H]1CC3,Activity,[5],56.3%
CC1(C)[C@@H](O[C@H]2O[C@H](C(=O)O)[C@@H](O)[C@H](O)[C@H]2O[C@@H]2O[C@H](C(=O)O)[C@@H](O)[C@H](O)[C@H]2O)CC[C@]2(C)[C@H]3C(=O)C=C4[C@@H]5C[C@@](C)(C(=O)O)CC[C@]5(C)CC[C@@]4(C)[C@]3(C)CC[C@@H]12 [GLYCYRRHIZIN],Activity,[1],253.5 U/L
same,IC50,[2],9.3 µM
same,Activity,[3],17.1 U/L
CC(C)=C(C)[C@H]1C[C@@H]([C@H]2CC[C@@]3(C)C4=C(CC[C@]23C)[C@@]2(C)CC[C@H](O)C(C)(C)[C@@H]2CC4)C(=O)O1,Activity,[5],71.9%
C[C@@H]1C(=O)[C@]2(C)CC[C@@]34C[C@@]56OC(=O)C[C@@H]5OC(C)(C)[C@H]6C[C@@H](O)[C@@H]3C(=O)[C@]3(O[C@@H]5[C@@H](OC(=O)[C@@H]5C)[C@H]1[C@@H]32)O4,Activity,[7],37.6%
